# Laboratory results published in US20230149355A1, “COMPOSITIONS AND METHODS FOR MODULATING TRP CHANNEL ACTIVITY” (priority 2020, published 2023).
# What was measured:
# human TRPA1 = human TRPA1 (Homo sapiens, UniProt O75762); assay: Ca2+ influx (Calcium 6 fluorescence) in human TRPA1 expressing HEK-293T cells; assay type: cell-based
# Protocol: (§1) HEK-293T cells were cultured in DMEM (Thermofisher Scientific, Waltham, Mass.) and supplemented with 10% fetal bovine serum (FBS) (Thermofisher Scientific), penicillin (100 units/mL) and streptomycin (0.1 mg/mL). Cells were plated on 100 mm tissue culture plates coated with poly-D-lysine (Sigma Aldrich, Saint Louis, Mo.) and grown to ˜60% confluence. The cells were transiently transfected for 16-24 hours with either human or mouse orthologs of TRPA1 using Fugene 6 transfection reagents and Opti-MEM (Thermofisher Scientific) according to the manufacturer's protocol. Subsequently, cells were trypsinized, re-suspended and re-plated onto poly-D-lysine coated 96-well plates (Krystal black walled plates, Genesee Scientific) at 5×10^5 cells/mL (100 μL/well) and allowed to grow for another 16-20 hrs prior to the experiments. Cells were maintained as monolayers in a 5% CO2 incubator at 37° C.
# (§2) Measurements of changes in intracellular Ca^2+ concentrations ([Ca^2+]i) were performed as described previously (Caceres et al., 2017). In brief, cells in 96-well plates were loaded with Calcium 6, a no-wash fluorescent indicator, for 1.5 hrs (Molecular Devices, San Jose, Calif.) and then transferred to a FlexStation III benchtop scanning fluorometer chamber (Molecular Devices). Fluorescence measurements in the FlexStation were performed at 37° C. (Ex:485 nm, Em: 525 nm at every 1.8 s). After recording baseline fluorescence, agonists (indole, IAld, cinnamaldehyde) were added and fluorescence was monitored for a total of 60 s. […] The change in fluorescence was measured as Fmax-F0, where Fmax is the maximum fluorescence and F0 is the baseline fluorescence measured in each well.
# mouse duodenum = assay: Amperometric measurement of 5-HT secretion, mouse small intestine; conditions: 10 mM Indole
# Description: These experiments using C57BL/6J mice were approved by the Flinders University Animal Welfare Committee (number 965-19) and human ileum tissue was collected from resected small and large intestine from patients that gave written informed consent under the approval of the Southern Adelaide Clinical Human Research Ethics Committee (number 50.07) as previous (Sun et al., 2019a). Mice were euthanized at 8 to 12 weeks by isoflurane overdose followed by cervical dislocation. The duodenum was removed and placed in Krebs solution oxygenated with 95% O2, 5% CO2. A midline incision was made along the duodenum to create a flat sheet, the section was pinned with the mucosal side up in an organ bath lined with Sylgard and containing oxygenated Krebs solution. Serotonin release was measured using amperometry. A carbon-fibre electrode (5-μm diameter, ProCFE; Dagan Corporation, Minneapolis, Minn.), was lowered above the mucosa and 400 mV potential was applied to the electrode causing oxidation of serotonin (Zelkas et al., 2015). […] The change in amplitude due to serotonin oxidation was recorded using an EPC-10 amplifier and Pulse software (HEKA Electronic, Lambrecht/Pfalz, Germany), and samples at 10 kHz and low-pass filtered at 1 kHz. Data was assessed as peak current during each treatment. Data was analyzed comparing all groups using one-way ANOVA with Tukey's post-hoc test. […]
# mouse TRPA1 = target: T1, mouse TRPA1 (Mus musculus, UniProt Q8BLA8); assay: Ca2+ influx (Calcium 6 fluorescence) in mouse Trpa1-expressing HEK-293T cells; assay type: cell-based
# T1 construct: expressed in transfected cells; host or cells: HEK-293T
# T1 sequence (Q8BLA8 whole entry): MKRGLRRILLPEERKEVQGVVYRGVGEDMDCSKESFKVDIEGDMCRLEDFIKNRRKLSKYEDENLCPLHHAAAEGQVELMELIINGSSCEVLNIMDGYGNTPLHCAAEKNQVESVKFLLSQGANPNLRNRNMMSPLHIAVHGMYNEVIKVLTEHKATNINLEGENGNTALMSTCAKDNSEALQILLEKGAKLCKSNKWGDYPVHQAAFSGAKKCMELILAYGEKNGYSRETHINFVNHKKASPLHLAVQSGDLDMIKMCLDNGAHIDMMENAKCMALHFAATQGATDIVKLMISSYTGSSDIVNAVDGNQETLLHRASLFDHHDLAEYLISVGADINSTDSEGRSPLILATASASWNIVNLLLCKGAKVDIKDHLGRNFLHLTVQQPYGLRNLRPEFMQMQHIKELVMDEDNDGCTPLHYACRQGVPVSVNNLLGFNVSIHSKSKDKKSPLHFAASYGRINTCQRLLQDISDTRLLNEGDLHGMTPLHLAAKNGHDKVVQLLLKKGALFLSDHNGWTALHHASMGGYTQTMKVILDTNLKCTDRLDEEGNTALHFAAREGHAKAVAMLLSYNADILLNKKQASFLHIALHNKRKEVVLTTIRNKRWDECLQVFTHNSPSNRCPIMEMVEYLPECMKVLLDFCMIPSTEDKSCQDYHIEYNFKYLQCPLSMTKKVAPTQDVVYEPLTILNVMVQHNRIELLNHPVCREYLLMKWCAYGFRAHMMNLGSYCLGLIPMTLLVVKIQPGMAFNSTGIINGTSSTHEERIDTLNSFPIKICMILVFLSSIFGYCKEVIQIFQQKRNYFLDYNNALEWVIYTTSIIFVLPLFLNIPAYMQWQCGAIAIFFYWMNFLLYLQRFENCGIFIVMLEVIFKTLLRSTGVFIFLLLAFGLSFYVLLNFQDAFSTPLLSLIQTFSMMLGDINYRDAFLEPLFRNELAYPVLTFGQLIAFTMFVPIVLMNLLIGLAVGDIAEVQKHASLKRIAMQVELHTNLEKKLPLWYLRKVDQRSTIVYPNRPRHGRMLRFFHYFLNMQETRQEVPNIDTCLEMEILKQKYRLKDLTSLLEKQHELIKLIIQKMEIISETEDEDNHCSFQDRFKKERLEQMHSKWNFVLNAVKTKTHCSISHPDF
# Protocol: as §1, §2
# Sequence of human TRPA1 (O75762 whole entry): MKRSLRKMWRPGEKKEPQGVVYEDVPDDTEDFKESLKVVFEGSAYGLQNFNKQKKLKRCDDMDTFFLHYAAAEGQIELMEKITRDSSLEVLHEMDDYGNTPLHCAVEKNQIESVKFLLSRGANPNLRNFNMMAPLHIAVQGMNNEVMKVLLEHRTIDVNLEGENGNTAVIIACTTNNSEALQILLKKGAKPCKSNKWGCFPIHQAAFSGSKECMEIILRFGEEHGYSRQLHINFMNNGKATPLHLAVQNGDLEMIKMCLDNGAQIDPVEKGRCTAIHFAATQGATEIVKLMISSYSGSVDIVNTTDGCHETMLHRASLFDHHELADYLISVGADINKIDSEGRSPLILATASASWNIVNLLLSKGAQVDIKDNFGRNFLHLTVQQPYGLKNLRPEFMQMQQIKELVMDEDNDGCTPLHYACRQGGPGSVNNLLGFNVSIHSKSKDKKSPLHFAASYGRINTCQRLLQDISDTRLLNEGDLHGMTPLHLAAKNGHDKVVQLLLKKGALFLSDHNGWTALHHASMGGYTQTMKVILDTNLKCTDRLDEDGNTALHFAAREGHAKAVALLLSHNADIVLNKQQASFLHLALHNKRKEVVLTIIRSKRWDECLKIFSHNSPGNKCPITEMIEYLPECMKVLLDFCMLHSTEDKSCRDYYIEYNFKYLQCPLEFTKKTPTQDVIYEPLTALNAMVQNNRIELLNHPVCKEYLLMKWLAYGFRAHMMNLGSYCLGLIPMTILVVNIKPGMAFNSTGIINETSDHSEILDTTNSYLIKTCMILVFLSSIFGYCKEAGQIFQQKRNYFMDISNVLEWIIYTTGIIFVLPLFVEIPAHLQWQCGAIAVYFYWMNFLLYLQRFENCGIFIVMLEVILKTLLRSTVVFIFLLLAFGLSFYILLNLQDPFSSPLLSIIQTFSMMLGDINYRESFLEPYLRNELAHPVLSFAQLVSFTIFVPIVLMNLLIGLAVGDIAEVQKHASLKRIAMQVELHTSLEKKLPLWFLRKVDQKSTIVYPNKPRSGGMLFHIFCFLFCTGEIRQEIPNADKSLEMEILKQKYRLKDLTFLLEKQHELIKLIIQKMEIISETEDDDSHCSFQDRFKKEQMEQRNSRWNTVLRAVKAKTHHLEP
smiles,measurement,setting,value
c1ccc2[nH]ccc2c1 [Indole],Activation of human TRPA1 receptor transfected into HEK cells,human TRPA1,activated
same,EC50,human TRPA1,88.7 µM
same,TRPA1 agonist efficacy,human TRPA1; efficiency comparable to cinnamaldehyde (CAD),full TRPA1 agonist activity
same,5-HT secretion in mouse duodenum,mouse duodenum,significant increase
same,EC50,mouse TRPA1,131 µM
same,Activation of mouse Trpa1,mouse TRPA1; compared with human TRPA1,"activated mouse Trpa1, but in a less potent manner"
